The subject of series [1] is P. falciparum strain 3D7. The series is described as follows: Antimalarial proliferation inhibition assay. Particulars: for IC50: mean of at least two experiments. The series is classed as cell-based, Plasmodium falciparum.
The subject of series [2] is Caco-2. The conditions noted are these: for Caco-2 A–B: apical to basolateral; for Caco-2 B–A: basolateral to apical.
Series [3] has as its system P. falciparum strain W2. The series is described as follows: Antimalarial proliferation inhibition assay. Type of series: cell-based, Plasmodium falciparum. The conditions noted are these: mean of at least two experiments.
Assay in series [4]: not given
This is another data set of the same source.

Assay in series [5]: not given
This is another data set of the same source.

Assay in series [6]: not given
The source holds these as a separate data set.

The subject of series [7] is Huh7. The series is described as follows: Cytotoxicity Huh7. Type of series: cell-based.
The test system of series [8] is CHO. The series is described as follows: Cytotoxicity CHO. The series is classed as cell-based.
The subject of series [9] is HEp2. Briefly: Cytotoxicity HEp2. Type of series: cell-based.
In series [10] the test system is HeLa. Briefly: Cytotoxicity HeLa. Type of series: cell-based.
Series [11] can be described thus: Maximum tolerable dose test in rats. The conditions noted are these: rats in vivo.
Series [12] deals with Ba/F3. The series is described as follows: Cytotoxicity Ba/F3. The series is classed as cell-based.
The nature of series [13]: mini-Ames test. (In general: The Ames test detects mutagens through reverse mutation in bacteria.)
Series [14] in a line: Micronucleus test.
Where [15] appears, read: Plasmodium falciparum, 3D7, read-out: P. falciparum strain IC50 3D7, resynthesized powders (data in brackets).
Setting [16] is: Plasmodium falciparum, W2, read-out: P. falciparum strain IC50 W2, resynthesized powders (data in brackets).
Setting [17] is: resynthesized powders (data in brackets).

Here are results for 11 molecules from publication PMC6950218 (Journal of Medicinal Chemistry, 2011).

Read-outs that look alike come from different tables or passages of the source.

`NCC(=O)N1CCn2c(nc(-c3ccc(F)cc3)c2Nc2ccc(F)cc2)C1` [Compound 5, 2-Amino-1-(2-(4-fluorophenyl)-3-(4-fluorophenylamino)-5,6-dihydroimidazo[1,2-a]pyrazin-7(8H)-yl)ethanone]: the “PAMPA (% absorbed)” value is recorded as 52 % absorbed. Besides, the “fold more potent than the original hit compound 1a” value in series [1] is given as 4 fold. Moreover, in series [2], the “Caco-2 A–B” value is given as 0.70 cm/s × 10^6 and the “Caco-2 B–A” value was found to be 2.55 cm/s × 10^6.
For the molecule “3-Amino-1-(2-(4-fluorophenyl)-3-(4-fluorophenylamino)-5,6-dihydroimidazo[1,2-a]pyrazin-7(8H)-yl)propan-1-one [Compound 29]”, the “PAMPA (% absorbed)” value was “low”. In [1] (read-out: P. falciparum strain IC50 3D7), the half-inhibitory concentration (IC50) turned out to be 30 nM. The IC50 in series [3] (read-out: P. falciparum strain IC50 W2) was determined as 23 nM. In [2], the “Caco-2 A–B” value stood at 0.99 cm/s × 10^6 and the “Caco-2 B–A” value worked out at 2.99 cm/s × 10^6. Moreover, in series [4], the “hepatic microsome metabolic stability (extraction ratio) mouse” value was found to be 0.21. Moreover, the “hepatic microsome metabolic stability (extraction ratio) rat” value in series [5] is reported as 0.38. The “hepatic microsome metabolic stability (extraction ratio) human” value in series [6] stood at 0.21.
As to `CC(C)(N)C(=O)N1CCn2c(nc(-c3ccc(F)cc3)c2Nc2ccc(F)cc2)C1` [Compound 11, 2-Amino-1-(2-(4-fluorophenyl)-3-(4-fluorophenylamino)-5,6-dihydroimidazo[1,2-a]pyrazin-7(8H)-yl)-2-methylpropan-1-one], the “PAMPA (% absorbed)” value came out at 81 % absorbed. Moreover, the “cytotoxicity TC50 Huh7” value in [7] is on record as “greater than 12 μM”. Further, the “cytotoxicity TC50 CHO” value in series [8] was “greater than 12 μM”. Besides, the “cytotoxicity TC50 HEp2” value in [9] is listed as “greater than 12 μM”. For the same molecule, the “cytotoxicity TC50 HeLa” value in series [10] is “greater than 12 μM”. Besides, the “maximum tolerable dose test” value in [11] was “no gross effects at doses up to 500 mg/kg”. In addition, in series [2], the “Caco-2 A–B” value worked out at 3.05 cm/s × 10^6 and the “Caco-2 B–A” value is on record as 8.38 cm/s × 10^6.
Take `CC(C)(N)C(=O)N1CCn2c(nc(-c3ccc(F)cc3)c2Nc2ccc(Cl)cc2)C1` [Compound 28, 2-Amino-1-(3-(4-chlorophenylamino)-2-(4-fluorophenyl)-5,6-dihydroimidazo[1,2-a]pyrazin-7(8H)-yl)-2-methylpropan-1-one]: the “PAMPA (% absorbed)” value was determined as 89 % absorbed. Moreover, in [2], the “Caco-2 A–B” value stood at 1.46 cm/s × 10^6 and the “Caco-2 B–A” value amounted to 1.86 cm/s × 10^6.
For `CC(C)CC(N)C(=O)N1CCn2c(nc(-c3ccccc3)c2Nc2ccc3c(c2)OCO3)C1` (stereo not drawn) [Compound 1c, 2-Amino-1-(3-(benzo[d][1,3]dioxol-5-ylamino)-2-phenyl-5,6-dihydroimidazo[1,2-a]pyrazin-7(8H)-yl)-4-methylpentan-1-one], the half-maximal inhibitory concentration (IC50) in series [1] (setting [15]) was determined as 30 nM; in [3] (setting [16]), 29 nM. Besides, the “cyotoxicity Huh7” value in [7] (HTS DMSO stock solutions) is over 10 µM; in series [7] (setting [17]), 42 µM.
On to `NCC(=O)N1CCn2c(nc(-c3cccc(F)c3)c2Nc2ccc(F)cc2)C1` [Compound 18, 2-Amino-1-(3-((4-fluorophenyl)amino)-2-(3-fluorophenyl)-5,6-dihydroimidazo[1,2-a]pyrazin-7(8H)-yl)ethanone], for which the “PAMPA (% absorbed)” value is “low”. For the same molecule, in series [2], the “Caco-2 A–B” value was found to be 0.56 cm/s × 10^6 and the “Caco-2 B–A” value is 2.32 cm/s × 10^6.
Consider `NCC(=O)N1CCn2c(nc(-c3ccccc3)c2Nc2ccc3c(c2)OCO3)C1` [Compound 1a, 2-Amino-1-(3-(benzo[d][1,3]dioxol-5-ylamino)-2-phenyl-5,6-dihydroimidazo[1,2-a]pyrazin-7(8H)-yl)ethanone], for which the IC50 in series [1] (setting [15]) turned out to be 460 nM; in series [3] (setting [16]), 473 nM. The entries for the “cyotoxicity Huh7” value in [7] (HTS DMSO stock solutions) and in series [7] (setting [17]) were over 10 µM and over 100 µM, respectively.
For `NC(Cc1ccccc1)C(=O)N1CCn2c(nc(-c3ccccc3)c2Nc2ccc3c(c2)OCO3)C1` (stereo not drawn) [Compound 1b, 2-Amino-1-(3-(benzo[d][1,3]dioxol-5-ylamino)-2-phenyl-5,6-dihydroimidazo[1,2-a]pyrazin-7(8H)-yl)-3-phenylpropan-1-one], in that order: 119 nM, 122 nM, over 10 µM and over 79 µM.
Consider `CC(C)(N)C(=O)N1CCn2c(nc(-c3ccc(F)cc3)c2Nc2ccc(Cl)c(F)c2)C1` [Compound 32, 2-Amino-1-(3-(4-chloro-3-fluorophenylamino)-2-(4-fluorophenyl)-5,6-dihydroimidazo[1,2-a]pyrazin-7(8H)-yl)-2-methylpropan-1-one], for which the “PAMPA (% absorbed)” value is given as 94 % absorbed. For the same molecule, in series [2], the “Caco-2 A–B” value was found to be 0.84 cm/s × 10^6 and the “Caco-2 B–A” value was 0.87 cm/s × 10^6.
With `NCC(=O)N1CCn2c(nc(-c3ccc(F)cc3)c2Nc2ccc(Cl)cc2)C1` [Compound 27, 2-Amino-1-(3-(4-chlorophenylamino)-2-(4-fluorophenyl)-5,6-dihydroimidazo[1,2-a]pyrazin-7(8H)-yl)ethanone], the “PAMPA (% absorbed)” value amounted to 52 % absorbed. In addition, in [2], the “Caco-2 A–B” value is listed as 0.44 cm/s × 10^6 and the “Caco-2 B–A” value was found to be 1.25 cm/s × 10^6.
`CC(C)(N)C(=O)N1CCn2c(nc(-c3ccc(F)cc3)c2Nc2ccc(F)c(F)c2)C1` [Compound 30, 2-Amino-1-(3-(3,4-difluorophenylamino)-2-(4-fluorophenyl)-5,6-dihydroimidazo[1,2-a]pyrazin-7(8H)-yl)-2-methylpropan-1-one]: the “PAMPA (% absorbed)” value was determined as 86 % absorbed. Besides, the “cytotoxicity TC50 Huh7” value in series [7] was “greater than 12 μM”. In [12], the “cytotoxicity TC50 Ba/F3” value is reported as “greater than 12 μM”. Also, in series [8], the “cytotoxicity TC50 CHO” value was “greater than 12 μM”. Further, in series [9], the “cytotoxicity TC50 HEp2” value was “greater than 12 μM”. In addition, the “cytotoxicity TC50 HeLa” value in [10] is “greater than 12 μM”. The mini-Ames test result in series [13] is on record as “negative”. Further, the micronucleus test entry in series [14] is listed as “negative”. In series [2], the “Caco-2 A–B” value is reported as 0.14 cm/s × 10^6 and the “Caco-2 B–A” value stood at 1.03 cm/s × 10^6.

One may read the IC50 as the concentration that inhibits the measured activity by half.
